Columns and labels:
[1] = system: Vero cells; assay: Cytotoxicity against Vero cells; type: cell-based
[2] = Metabolic stability in mouse liver microsomes; type: in vitro ADME; details: for Qp,h (percentage ratio of predicted clearance over plasma flow): well-stirred model; for half-life: mouse, liver microsomes

| SMILES | selectivity index (SI) ([1]; IC50 Vero cells over MICMABA, repeat testing) | toxicity toward Vero cells from the HTS studies ([1]; initial HTS study, before repeat testing) [µm] | Qp,h (percentage ratio of predicted clearance over plasma flow) ([2]; mouse liver microsomes) [%] | half-life [2] [min] | Half life ([2]; mouse liver microsomes, 30 min incubation) |
| --- | --- | --- | --- | --- | --- |
| Cc1c(Cc2ccc(Cl)cc2)c(=O)n2c([nH]c3ccccc32)c1C#N [3a, 2-(4-Chlorobenzyl)-3-methyl-1-oxo-1H,5H-pyrido[1,2-a]benzimidazole-4-carbonitrile] | 16 | > 100 | 95.4 | 6.5 |  |
| Cc1c(Cc2ccccc2)c(=O)n2c([nH]c3ccccc32)c1C#N [3v, 2-Benzyl-3-methyl-1-oxo-1H,5H-pyrido[1,2-a]benzimidazole-4-carbonitrile] |  |  | 94.5 | 7.82 |  |
| COc1cccc(Cc2c(C)c(C#N)c3[nH]c4ccccc4n3c2=O)c1 [3e, 3-Methyl-2-(3-methoxybenzyl)-1-oxo-1H,5H-pyrido[1,2-a]benzimidazole-4-carbonitrile] |  |  | 93.5 | 9.43 |  |
| Cc1c(C)c(=O)n2c([nH]c3ccccc32)c1C#N [3w, 2,3-Dimethyl-1-oxo-1H,5H-pyrido[1,2-a]benzimidazole-4-carbonitrile] |  |  | 72.5 | 51.2 | most stable member of the set of compounds tested |
| Cc1c(Cc2cccc(C(F)(F)F)c2)c(=O)n2c([nH]c3ccccc32)c1C#N [3d, 3-Methyl-1-oxo-2-[3-(trifluoromethyl)benzyl]-1H,5H-pyrido[1,2-a]-benzimidazole-4-carbonitrile] |  |  | 90.0 | 15 |  |
